{
  "source": "paper PMC10552397",
  "about": "(Cell Communication and Signaling : CCS, 2023)",
  "target": "GRASP55 (Homo sapiens, UniProt Q9H8Y8)",
  "assay": "Thermal proteome profiling compound concentration range (TPP-CCR), GRASP55",
  "format": "binding",
  "parameters": "endogenous in cells",
  "settings": "for GORASP2 dose response, average: average of n=1-3; for GORASP2 dose response, fit: value of fitted curve; for EC50: 3 min at 50 °C; for normalized.Reporter.intensity: single replicates n1-n3",
  "procedure": "Adherent cells were washed in the dish once with DPBS and harvested by Trypsin–EDTA (0.25%, Thermo Fisher Scientific, Waltham, MA, USA, #25,200,056) treatment. After addition of 35 mL DPBS, the cells were pelleted by centrifugation (300 rcf, 5 min, 4 °C), and washed twice by re-suspending and pelleting using 45 mL and 1 mL DPBS, respectively, to remove excess trypsin and for transfer into pre-weighed 2 mL Eppendorf tubes to determine the cell pellet wet weights as quality check after centrifugation (300 rcf, 5 min, 4 °C) and complete removal of the supernatant. Cells for TPP-TR were resuspended using 1 mL, and cells for TPP-CCR were resuspended using 0.4 mL ice-cold DPBS, respectively, supplemented with protease inhibitor cocktail (Roche, Basel, Switzerland, #5,892,791,001). […] Cell suspensions were shortly centrifuged (1 s or less) using a benchtop centrifuge to release trapped air and to achieve an even liquid level without pelleting the cells. The samples were then temperature treated by a 7 min pre-incubation at RT, 3 min temperature treatment in the PCR cycler (DNA Engine Tetrad 2, lid temperature 70 °C) at different temperatures (37 °C or 50 °C for TPP-CCR or the temperatures given in Table 2 for TPP-TR) and a 3 min post-incubation at RT in a metal heating block for uniform heat dissipation.\nAfter temperature treatment, samples were supplemented with lysis buffer (final concentrations: 0.36 U/µL benzonase, 1.5 mM MgCl2, 1 mM Na3VO4, 10 mM NaF, 2.5 mM Na4P2O7, 0.8% w/v NP-40) for 1 h on ice. The lysates were cleared from cell debris as well as denatured and precipitated proteins by centrifugation at 20,000 rcf and 4 °C for 30 min. The total protein concentration of the resulting cell extracts containing the fraction of soluble, non-denatured proteins was determined (Pierce 660 nm Protein Assay, BSA as standard). Cell extracts were shock frozen in liquid nitrogen and stored at -80 °C. The three replicates for TPP-TR and TPP-CCR were prepared on consecutive days, respectively. The two (37 °C or 50 °C) x ten (concentrations) x three (replicates) = 60 TPP-CCR samples and two (treatment and control) x ten (temperatures) x three (replicates) = 60 TPP-TR samples were analyzed by LC–MS/MS. GRASP55 was additionally quantified from the TPP-TR samples by immunoblotting as described in the respective section.\nFor TPP-CCR, SP3 was performed as described with slight modifications to the original protocol using on average 5 µg total protein per sample and resulting in theoretically 5 µg peptides in 22 µL 50 mM triethylammonium bicarbonate per sample. For each of the two (treatment and control) x three (replicates) = six TPP-TR temperature treatment sample sets, the same volume for each of the ten temperature samples was used for SP3 processing, thus, maintaining the information about the temperature dependent non-denatured protein content. This volume was calculated such that the lowest two temperature samples (36.5 °C and 41.2 °C) contained 10 µg total protein on average. The samples were diluted using SDS containing buffer (20 µL final, final concentrations: 7.5% glycerol, 3% SDS, 37.5 mM Tris/HCl pH 7.0) and the proteins were reduced, alkylated, and precipitated on the solid phase as described using adjusted volumes (2 × due to processing 10 µg instead of 5 µg). Volumes for washing of the aggregated proteins on the solid phase and for tryptic digestion were kept unchanged, however, to maintain the maximal total protein to trypsin/Lys-C ratio at 50:1 in the two rounds of digestion (13 h and 4 h), respectively, 2 × 0.2 µg trypsin/Lys-C was used per sample, theoretically resulting in at most about 10 µg peptides in 22 µL 50 mM triethylammonium bicarbonate. […]",
  "note": "“And” between values parts separate entries of the source, which are not always exact repeats. Equal entries are not always repeated.",
  "data": [
    {"smiles": "CCCCCC1=C/C(=C/c2[nH]c(-c3ccc[nH]3)cc2OC)N=C1C", "note": "[Prodigiosin, prodigiosin]", "values": [
      {"measurement": "GORASP2 dose response, average", "setting": "37°C, 0.0976562 nM prodigiosin", "result": -0.42},
      {"measurement": "GORASP2 dose response, fit", "setting": "37°C, 0.0976562 nM prodigiosin", "result": 0.0663},
      {"measurement": "GORASP2 dose response, average", "setting": "37°C, 0.390625 nM prodigiosin", "result": 0.54},
      {"measurement": "GORASP2 dose response, fit", "setting": "37°C, 0.390625 nM prodigiosin", "result": 0.10},
      {"measurement": "GORASP2 dose response, average", "setting": "37°C, 1.5625 nM prodigiosin", "result": 0.10},
      {"measurement": "GORASP2 dose response, fit", "setting": "37°C, 1.5625 nM prodigiosin", "result": 0.16},
      {"measurement": "GORASP2 dose response, average", "setting": "37°C, 6.25 nM prodigiosin", "result": 0.08},
      {"measurement": "GORASP2 dose response, fit", "setting": "37°C, 6.25 nM prodigiosin", "result": 0.23},
      {"measurement": "GORASP2 dose response, average", "setting": "37°C, 25 nM prodigiosin", "result": 0.33},
      {"measurement": "GORASP2 dose response, fit", "setting": "37°C, 25 nM prodigiosin", "result": 0.33},
      {"measurement": "GORASP2 dose response, average", "setting": "37°C, 100 nM prodigiosin", "result": 0.64},
      {"measurement": "GORASP2 dose response, fit", "setting": "37°C, 100 nM prodigiosin", "result": 0.44},
      {"measurement": "GORASP2 dose response, average", "setting": "37°C, 400 nM prodigiosin", "result": 0.47},
      {"measurement": "GORASP2 dose response, fit", "setting": "37°C, 400 nM prodigiosin", "result": 0.56},
      {"measurement": "GORASP2 dose response, average", "setting": "37°C, 1600 nM prodigiosin", "result": 0.85},
      {"measurement": "GORASP2 dose response, fit", "setting": "37°C, 1600 nM prodigiosin", "result": 0.68},
      {"measurement": "GORASP2 dose response, average", "setting": "37°C, 6400 nM prodigiosin", "result": 0.55},
      {"measurement": "GORASP2 dose response, fit", "setting": "37°C, 6400 nM prodigiosin", "result": 0.77},
      {"measurement": "GORASP2 dose response, average", "setting": "50°C, 0.0976562 nM prodigiosin", "result": 0.0745},
      {"measurement": "GORASP2 dose response, fit", "setting": "50°C, 0.0976562 nM prodigiosin", "result": 0.06},
      {"measurement": "GORASP2 dose response, average", "setting": "50°C, 0.390625 nM prodigiosin", "result": 0.13},
      {"measurement": "GORASP2 dose response, fit", "setting": "50°C, 0.390625 nM prodigiosin", "result": 0.17},
      {"measurement": "GORASP2 dose response, average", "setting": "50°C, 1.5625 nM prodigiosin", "result": 0.40},
      {"measurement": "GORASP2 dose response, fit", "setting": "50°C, 1.5625 nM prodigiosin", "result": 0.39},
      {"measurement": "GORASP2 dose response, average", "setting": "50°C, 6.25 nM prodigiosin", "result": 0.72},
      {"measurement": "GORASP2 dose response, fit", "setting": "50°C, 6.25 nM prodigiosin", "result": 0.68},
      {"measurement": "GORASP2 dose response, average", "setting": "50°C, 25 nM prodigiosin", "result": 0.81},
      {"measurement": "GORASP2 dose response, fit", "setting": "50°C, 25 nM prodigiosin", "result": 0.87},
      {"measurement": "GORASP2 dose response, average", "setting": "50°C, 100 nM prodigiosin", "result": 0.97},
      {"measurement": "GORASP2 dose response, fit", "setting": "50°C, 100 nM prodigiosin", "result": 0.96},
      {"measurement": "GORASP2 dose response, average", "setting": "50°C, 400 nM prodigiosin", "result": 0.97},
      {"measurement": "GORASP2 dose response, fit", "setting": "50°C, 400 nM prodigiosin", "result": 0.99},
      {"measurement": "GORASP2 dose response, average", "setting": "50°C, 1600 nM prodigiosin", "result": 1.04},
      {"measurement": "GORASP2 dose response, fit", "setting": "50°C, 1600 nM prodigiosin", "result": 1.00},
      {"measurement": "GORASP2 dose response, average", "setting": "50°C, 6400 nM prodigiosin", "result": 0.85},
      {"measurement": "GORASP2 dose response, fit", "setting": "50°C, 6400 nM prodigiosin", "result": 1.00},
      {"measurement": "EC50", "setting": "EC50 of GRASP55 stabilization, HeLa wt, 6 h", "result": 2.6, "unit": "nM"},
      {"measurement": "diff pseudoR2(50-37°C)", "setting": "GRASP55/GORASP2", "result": 0.81},
      {"measurement": "pseudoR2 (dose response curve fit, 37°C)", "setting": "GRASP55/GORASP2, 37°C", "result": 0.16},
      {"measurement": "normalized.Reporter.intensity", "setting": "GRASP55/GORASP2, 37°C, 0.0976562 nM prodigiosin", "result": "0.13 and -0.19 and -1.19"},
      {"measurement": "normalized.Reporter.intensity", "setting": "GRASP55/GORASP2, 37°C, 0.390625 nM prodigiosin", "result": "0.0349 and 0.46 and 1.11"},
      {"measurement": "normalized.Reporter.intensity", "setting": "GRASP55/GORASP2, 37°C, 1.5625 nM prodigiosin", "result": "0.45 and -0.0156 and -0.12"},
      {"measurement": "normalized.Reporter.intensity", "setting": "GRASP55/GORASP2, 37°C, 6.25 nM prodigiosin", "result": "0.55 and 0.11 and -0.42"},
      {"measurement": "normalized.Reporter.intensity", "setting": "GRASP55/GORASP2, 37°C, 25 nM prodigiosin", "result": "0.93 and 0.24 and -0.19"},
      {"measurement": "normalized.Reporter.intensity", "setting": "GRASP55/GORASP2, 37°C, 100 nM prodigiosin", "result": "1.03 and 0.10 and 0.80"},
      {"measurement": "normalized.Reporter.intensity", "setting": "GRASP55/GORASP2, 37°C, 400 nM prodigiosin", "result": "0.81 and 0.51 and 0.08"},
      {"measurement": "normalized.Reporter.intensity", "setting": "GRASP55/GORASP2, 37°C, 1600 nM prodigiosin", "result": "1.12 and 0.54 and 0.88"},
      {"measurement": "normalized.Reporter.intensity", "setting": "GRASP55/GORASP2, 37°C, 6400 nM prodigiosin", "result": "-0.23 and 0.82 and 1.06"},
      {"measurement": "H (dose response curve fit parameters, 37°C)", "setting": "GRASP55/GORASP2, 37°C, Hill slope of fit", "result": "0.35 and 0.3479"},
      {"measurement": "pseudoR2 (dose response curve fit, 50°C)", "setting": "GRASP55/GORASP2, 50°C", "result": 0.97},
      {"measurement": "normalized.Reporter.intensity", "setting": "GRASP55/GORASP2, 50°C, 0.0976562 nM prodigiosin", "result": "0.0172 and 0.11 and 0.10"},
      {"measurement": "normalized.Reporter.intensity", "setting": "GRASP55/GORASP2, 50°C, 0.390625 nM prodigiosin", "result": "0.12 and 0.19 and 0.10"},
      {"measurement": "normalized.Reporter.intensity", "setting": "GRASP55/GORASP2, 50°C, 1.5625 nM prodigiosin", "result": "0.43 and 0.35 and 0.41"},
      {"measurement": "normalized.Reporter.intensity", "setting": "GRASP55/GORASP2, 50°C, 6.25 nM prodigiosin", "result": "0.85 and 0.64 and 0.65"},
      {"measurement": "normalized.Reporter.intensity", "setting": "GRASP55/GORASP2, 50°C, 25 nM prodigiosin", "result": "0.87 and 0.76 and 0.81"},
      {"measurement": "normalized.Reporter.intensity", "setting": "GRASP55/GORASP2, 50°C, 100 nM prodigiosin", "result": "0.94 and 0.97 and 0.99"},
      {"measurement": "normalized.Reporter.intensity", "setting": "GRASP55/GORASP2, 50°C, 400 nM prodigiosin", "result": "0.91 and 0.97 and 1.04"},
      {"measurement": "normalized.Reporter.intensity", "setting": "GRASP55/GORASP2, 50°C, 1600 nM prodigiosin", "result": "1.02 and 1.10 and 1.01"},
      {"measurement": "normalized.Reporter.intensity", "setting": "GRASP55/GORASP2, 50°C, 6400 nM prodigiosin", "result": "0.82 and 0.89 and 0.84"},
      {"measurement": "H (dose response curve fit parameters, 50°C)", "setting": "GRASP55/GORASP2, 50°C, Hill slope of fit", "result": "0.84 and 0.8417"},
      {"measurement": "dose response of GRASP55 at 37 °C (abundance control)", "setting": "HeLa wt, 6 h, 37 °C", "result": "no dose response effects"},
      {"measurement": "EC50", "setting": "pEC50 of GRASP55 stabilization, HeLa wt, 6 h", "result": 2.63, "unit": "nM"}
    ]}
  ]
}
